{
  "source": "patent US10617662B2",
  "about": "“Autophagy activation-induced compound for improving skin inflammation for aging” (INCOSPHARM CORPORATION, priority 2017, dated 2020)",
  "key": {"IL-6 (interleukin 6)": {"test_system": "IL-6 (interleukin 6)", "assay": "ELISA for IL-6 in HEKa cells under inflammatory condition", "assay_type": "cell-based, human", "details": "TNF-α/IFN-γ or IL-17A/IL-22 induced inflammatory condition, 10·M, FIGS. 5 to 7", "description": "In order to analyze whether treatment of Compound 8 has an atopy alleviation effect, ELISA (enzyme-linked immunosorbent assay) for IL-6 (interleukin 6) and IL-8 (interleukin 8) which are very closely related to atopic inflammation and psoriasis was performed.\nAs the specific experimental method, HEKa cells (Human Epidermal keratinocytes, adult), human-derived epidermal keratinocytes were seeded on a 24 well plate at a density of 1×10^5 cells, and cultured in an EpiLife medium (1× Human keratinocyte Growth supplement, 1× antibiotics) in an incubator under 37° C. and 5% CO2 for 24 hours.\nAfter culturing, while an inflammatory condition was induced by treatment with either TNF-α (Tumor necrosis factor-α)/IFN-γ (interferon-γ) or IL-17A (interleukin-17A)/IL-22 (interleukin-22) in each well, further treatment was performed with Compound 8 of the present invention at a concentration of 10·M, and then the cells were incubated for a certain period. After completing culturing, media were collected, and then ELISA for each IL-6 and IL-8 was carried out."}, "[1]": {"test_system": "IL-36G (interleukin 36, gamma)", "assay": "RT-PCR of psoriasis-related gene IL-36G", "assay_type": "cell-based, human", "details": "HEKa cells, 20 uM, FIGS. 2 and 3", "description": "(§1) A psoriasis-related genes were selected from the cDNA array result in which Compound 8 of the present invention was treated in HaCaT cells. In order to analyze whether Compound 8 has an effect on psoriasis alleviation, RT-PCR analysis for IL-36′ (interleukin 36 gamma), KLK7 (Kallikrein-related peptidase 7), OASL (2′-5′-Oligoadenylate Synthetase Like) and ALOX12B (Arachidonate 12-lipoxygenase, 12R type) which are very closely related to psoriasis was carried out. Further, KRT16 (Keratin 16), KRT6 (Keratin 6) and KRT1 (Keratin 1), known as psoriasis-related proliferation, differentiation markers were confirmed by a western blot analysis. As the specific experimental method, HEKa cells (Human Epidermal keratinocytes, adult), human-derived epidermal keratinocytes were seeded on a 24 well plate at a density of 1×10^5 cells, and cultured in an EpiLife medium (1× Human keratinocyte Growth supplement, 1× antibiotics) in an incubator under 37° C. and 5% CO2 for 24 hours. […]"}, "[2]": {"test_system": "CCL20 (Chemokine (C-C motif) ligand 20)", "assay": "Cytokine gene expression, CCL20, IL-17A/TNF-α condition", "assay_type": "cell-based, human", "details": "FIG. 9"}, "[3]": {"test_system": "ULK-1 (Serine/threonine-protein kinase-1)", "assay": "Western blot for ULK-1 protein", "assay_type": "cell-based, human", "details": "HaCaT cells; 20 uM dilution, 1 ml added to 1 ml medium; FIG. 1", "description": "In order to analyze which gene expression is related to increased autophagy activation by Compound 8 of the present invention, a western blot analysis for Beclin-1 and ULK-1 (Serine/threonine-protein kinase-1) proteins which are closely related to autophagy activation was performed.\nAs a specific experimental method, HaCaT cells, human-derived keratinocytes were seeded on a 60Ø dish at a density of 3×10^5 cells, and cultured in DMEM (Dulbecco's Modified Eagle Media, Gibco BRL) in an incubator under 37° C. and 5% CO2 for 24 hours. Compound 8 of the present invention was dissolved in DMSO at a concentration of 10 mM each to be a concentrate, and diluted with a medium to be at a concentration of 20 uM. Then in a state where 1 ml of medium was first in each well, 1 ml of each diluted solution was added thereto for treatment, and cultured for a certain period, and after completing the culturing, the medium was removed, and then cells were disrupted with a SDS sample buffer, and each protein was separated by SDS-PAGE gel electrophoresis, and transferred to a PVDF membrane. […]"}, "[4]": {"test_system": "STAT3 (Signal transducer and activator of transcription 3)", "assay": "Expression of psoriasis-related transcription factor STAT3 in induced inflammatory condition", "assay_type": "cell-based, human", "details": "IL-17A/TNFα- or IL-17A/IFNγ-induced inflammatory condition"}, "[5]": {"test_system": "psoriasis animal model induced by imiquimod 5% cream", "assay": "Psoriasis animal model (imiquimod), clinical findings: erythema", "assay_type": "in vivo, BALB/c mice", "description": "(§2) In order to confirm the psoriasis treatment effect by Compound 8 of the present invention, dorsal hair of 8-week-old BALB/c mice (female) was removed using hair removal cream (Veet®, Oxy Reckitt Benckiser, Cedex, France), and subsequently imiquimod 5% cream (Aldara®; 3M Pharmaceuticals, UK; 62.5 mg) was applied on the back and both ears of the mice twice in the morning and in the afternoon (Sensitization; Day 0). Then, after a barrier recovery period of 2 days, imiquimod 5% cream (62.5 mg/day) was applied repeatedly for 7 days (Induction stage; Day 2 -Day 8), thereby inducing the psoriasis animal model.\nAfter inducing the psoriasis animal model, Compound 8 of the present invention dissolved in ethanol (0.5%) and cream containing Compound 8 of the present invention (The same composition as that of the cosmetic composition of Example 14 […]; […]). An untreated control group and a disease control group (vehicle) were treated with cream not containing Compound 8 of the present invention (cosmetic composition of Comparative Example 2) and ethanol, and during the treatment period, imiquimod 5% cream was applied thereon every other day, thereby maintaining psoriasis."}, "[6]": {"test_system": "ALOX12B (Arachidonate 12-lipoxygenase, 12R type)", "assay": "RT-PCR of psoriasis-related gene ALOX12B", "assay_type": "cell-based, human", "details": "HEKa cells, 20 uM, FIGS. 2 and 3", "description": "as §1"}, "[7]": {"assay": "Psoriasis animal model, weight change", "assay_type": "in vivo, BALB/c mice", "details": "topical treatment, FIG. 16", "description": "as §2\nAfter inducing the psoriasis animal model, Compound 8 of the present invention dissolved in ethanol (0.5%) and cream containing Compound 8 of the present invention (The same composition as that of the cosmetic composition of Example 14 except that it contained 0.5% by weight of Compound 8) were applied on the back once in the morning for 5 days (Treatment Stage; Day 8-Day 12). An untreated control group and a disease control group (vehicle) were treated with cream not containing Compound 8 of the present invention (cosmetic composition of Comparative Example 2) and ethanol, and during the treatment period, imiquimod 5% cream was applied thereon every other day, thereby maintaining psoriasis."}},
  "data": [
    {"smiles": "CCCCCCCCCCCCCCCC(=O)NCCCC[C@H](NC(=O)[C@H](CCCCN(CC(=O)O)CC(=O)O)N(CC(=O)O)CC(=O)O)C(=O)O", "note": "[Compound 8]", "values": [
      {"measurement": "secretion of IL-6", "setting": "IL-6 (interleukin 6)", "result": "significantly reduced"},
      {"measurement": "expression level of IL-36G gene", "setting": "[1]", "result": "significantly decreased"},
      {"measurement": "expression level of CCL20", "setting": "[2]", "result": "reduced"},
      {"measurement": "expression of ULK-1 protein", "setting": "[3]", "result": "significantly increased"},
      {"measurement": "expression level of STAT3", "setting": "[4]", "result": "reduced"},
      {"measurement": "erythema on day 14, reduction level", "setting": "[5]; day 14 after treatment, FIG. 14", "result": "very remarkable"},
      {"measurement": "erythema increased by imiquimod", "setting": "[5]; topical on back, 0.5% in ethanol or 0.5% cream, treatment for 6 days, FIG. 13", "result": "significantly reduced"},
      {"measurement": "expression level of ALOX12B gene", "setting": "[6]", "result": "significantly decreased"},
      {"measurement": "weight change after treatment", "setting": "[7]", "result": "almost similar to those of the control group"}
    ]}
  ]
}
